# Calls of active or inactive are those of the source.
# Tests used:
# [1] = molecular target: Luciferin 4-monooxygenase (Photinus pyralis, UniProt P08659); assay: firefly luciferase enzyme inhibitors, dose response, biochemical, luminescence (AID 1891)
# [2] = Luminescence Cell-Based Dose Confirmation HTS to Identify Inhibitors of Platelet Dense Granule Release. [Related pubchem assays: 1663 (Primary HTS), 1678 (Summary of Project)]; assay type: functional
# [3] = Fluorescence Cell-Based Dose Response to Identify Inhibitors of Thrombin Receptor-Activating Peptide SFLLRN-Mediated P-Selectin Induction on Platelets. [Related pubchem assays: 1663 (Primary HTS), 1889 (retest at dose ), 1891 (counterscreen), 1678 (Project Summary)]; assay type: functional
# [4] = molecular target: T1, Heat shock protein HSP 90-alpha (Homo sapiens, UniProt P07900); assay: Luminescence-based dose response biochemical high throughput screening assay for inhibitors of the Heat Shock Protein 90 (HSP90). [Related pubchem assays: 1831 (Summary AID.), 1846 (Confirmation screen.), 1789 (Primary screen.)]
# [5] = microbe, parasite or virus in culture; assay type: functional; details: Mycobacterium tuberculosis
# [6] = growth suppression of PTEN-null colon cells, dose response, cell-based, HCT116 PTEN knockout (AID 1047); assay type: functional;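 also: HCT116 colon tumor cells with PTEN knocked out; cells exposed to compound for 60 hours before readout; potency for loss of cell viability measured by luminescence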
# [7] = growth suppression of beta-catenin-knockout colon cells, dose response, cell-based, HCT116, human colon tumor (AID 1045); assay type: functional;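 also: HCT116 colon tumor cells with beta catenin knocked out; cells exposed to compound for 60 hours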
# Ephrin type-A receptor 4 = Ephrin type-A receptor 4 (Mus musculus, UniProt Q03137); assay: inhibitors of EphA4 binding to KYL peptide, primary screen, biochemical, colorimetric, mouse EphA4 (AID 689); assay type: functional
# [8] = molecular target: T1, Heat shock protein HSP 90-alpha; assay type: functional, organism-based
# Cytochrome P450 2D6 = Cytochrome P450 2D6 (Homo sapiens, UniProt P10635);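 also: CYP2D6 member of a cytochrome P450 panel assay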
# [9] = molecular target: Glyceraldehyde-3-phosphate dehydrogenase (Homo sapiens, UniProt P04406)
# Bcl-2-related protein A1 [10] = molecular target: T2, Bcl-2-related protein A1 (Mus musculus, UniProt Q07440); assay: Bfl-1 inhibitors blocking BH3 peptide binding, confirmation, biochemical, TR-FRET, mouse Bfl-1 (AID 621);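 also: TR-FRET binding of GST-Bfl-1 to FITC-labelled Bid peptide via terbium antibody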
# T2 sequence (Q07440 whole entry): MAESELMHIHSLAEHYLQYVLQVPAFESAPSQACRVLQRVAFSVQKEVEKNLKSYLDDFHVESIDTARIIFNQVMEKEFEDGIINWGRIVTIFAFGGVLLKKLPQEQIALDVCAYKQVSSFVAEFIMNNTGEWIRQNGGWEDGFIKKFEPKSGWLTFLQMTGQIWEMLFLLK
# Bcl-2-related protein A1 [11] = molecular target: T2, Bcl-2-related protein A1; assay: Bfl-1 binding inhibitors, SAR follow-up, biochemical, fluorescence polarization (AID 1070)
# Cytochrome P450 2C19 = Cytochrome P450 2C19 (Homo sapiens, UniProt P33261); assay: qHTS Assay for Inhibitors and Substrates of Cytochrome P450 2C19. [Related pubchem assays: 410 ]; assay type: ADME; details: read-out: Potency
# Cytochrome P450 3A4 = Cytochrome P450 3A4 (Homo sapiens, UniProt P08684); details: Potency;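 also: confirmatory qHTS run detecting inhibitors and substrates of CYP3A4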
# [12] = molecular target: Voltage-gated inwardly rectifying potassium channel KCNH2 (Homo sapiens, UniProt Q12809); assay: hERG protection from proarrhythmic block, potency, dose response, cell-based, thallium flux (AID 2121); assay type: ADME
# Chain of Voltage-gated inwardly rectifying potassium channel KCNH2 (Q12809 whole entry): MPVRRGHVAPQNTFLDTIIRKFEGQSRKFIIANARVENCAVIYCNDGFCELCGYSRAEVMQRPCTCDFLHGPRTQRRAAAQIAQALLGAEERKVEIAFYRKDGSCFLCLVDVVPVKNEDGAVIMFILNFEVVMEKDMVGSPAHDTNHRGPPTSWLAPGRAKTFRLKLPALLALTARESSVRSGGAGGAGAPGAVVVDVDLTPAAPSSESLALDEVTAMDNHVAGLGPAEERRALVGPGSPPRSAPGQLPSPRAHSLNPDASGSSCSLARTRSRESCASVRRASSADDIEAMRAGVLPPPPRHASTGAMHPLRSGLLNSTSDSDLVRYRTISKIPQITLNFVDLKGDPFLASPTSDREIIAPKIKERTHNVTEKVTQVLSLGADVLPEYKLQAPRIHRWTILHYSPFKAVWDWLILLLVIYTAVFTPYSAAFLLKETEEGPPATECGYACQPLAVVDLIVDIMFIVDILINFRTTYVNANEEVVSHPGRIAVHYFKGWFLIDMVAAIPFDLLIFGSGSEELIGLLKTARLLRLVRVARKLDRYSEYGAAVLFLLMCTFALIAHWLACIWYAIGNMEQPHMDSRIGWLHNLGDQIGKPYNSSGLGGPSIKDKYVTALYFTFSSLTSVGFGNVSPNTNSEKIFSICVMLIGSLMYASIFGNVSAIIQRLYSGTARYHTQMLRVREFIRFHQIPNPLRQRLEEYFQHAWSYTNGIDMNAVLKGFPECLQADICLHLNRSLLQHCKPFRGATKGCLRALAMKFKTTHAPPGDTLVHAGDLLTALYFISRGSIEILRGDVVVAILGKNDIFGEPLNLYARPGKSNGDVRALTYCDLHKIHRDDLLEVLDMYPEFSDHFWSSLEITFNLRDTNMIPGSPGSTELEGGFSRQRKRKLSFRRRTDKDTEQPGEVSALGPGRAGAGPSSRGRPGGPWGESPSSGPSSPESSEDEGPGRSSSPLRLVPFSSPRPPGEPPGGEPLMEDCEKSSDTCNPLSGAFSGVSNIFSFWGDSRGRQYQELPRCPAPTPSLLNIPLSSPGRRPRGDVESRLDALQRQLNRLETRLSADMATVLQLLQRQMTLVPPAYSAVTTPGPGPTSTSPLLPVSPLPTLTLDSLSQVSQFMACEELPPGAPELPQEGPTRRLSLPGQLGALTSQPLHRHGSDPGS
# Chain of Cytochrome P450 2C19 (P33261 whole entry): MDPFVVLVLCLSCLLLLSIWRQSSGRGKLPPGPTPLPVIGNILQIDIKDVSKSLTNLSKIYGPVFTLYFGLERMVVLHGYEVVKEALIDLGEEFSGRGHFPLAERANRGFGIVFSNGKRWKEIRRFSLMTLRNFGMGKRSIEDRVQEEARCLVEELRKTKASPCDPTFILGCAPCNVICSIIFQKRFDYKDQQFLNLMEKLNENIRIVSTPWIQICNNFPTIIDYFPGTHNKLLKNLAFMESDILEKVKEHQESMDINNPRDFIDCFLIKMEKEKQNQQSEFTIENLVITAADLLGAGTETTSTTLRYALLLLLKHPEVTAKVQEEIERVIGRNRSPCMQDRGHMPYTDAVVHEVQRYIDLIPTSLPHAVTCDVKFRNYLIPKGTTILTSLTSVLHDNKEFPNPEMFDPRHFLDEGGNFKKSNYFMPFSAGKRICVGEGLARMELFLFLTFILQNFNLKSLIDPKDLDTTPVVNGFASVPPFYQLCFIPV
# Chain of Glyceraldehyde-3-phosphate dehydrogenase (P04406 whole entry): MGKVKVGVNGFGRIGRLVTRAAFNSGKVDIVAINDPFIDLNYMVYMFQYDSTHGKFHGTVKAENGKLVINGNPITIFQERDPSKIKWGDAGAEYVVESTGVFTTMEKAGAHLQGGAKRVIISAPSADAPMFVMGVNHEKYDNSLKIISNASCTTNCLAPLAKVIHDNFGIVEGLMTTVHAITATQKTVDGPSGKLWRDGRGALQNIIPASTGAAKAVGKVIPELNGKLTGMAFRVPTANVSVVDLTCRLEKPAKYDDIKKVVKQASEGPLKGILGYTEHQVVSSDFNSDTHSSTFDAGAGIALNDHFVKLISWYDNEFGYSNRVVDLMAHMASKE
# Chain of Cytochrome P450 3A4 (P08684 whole entry): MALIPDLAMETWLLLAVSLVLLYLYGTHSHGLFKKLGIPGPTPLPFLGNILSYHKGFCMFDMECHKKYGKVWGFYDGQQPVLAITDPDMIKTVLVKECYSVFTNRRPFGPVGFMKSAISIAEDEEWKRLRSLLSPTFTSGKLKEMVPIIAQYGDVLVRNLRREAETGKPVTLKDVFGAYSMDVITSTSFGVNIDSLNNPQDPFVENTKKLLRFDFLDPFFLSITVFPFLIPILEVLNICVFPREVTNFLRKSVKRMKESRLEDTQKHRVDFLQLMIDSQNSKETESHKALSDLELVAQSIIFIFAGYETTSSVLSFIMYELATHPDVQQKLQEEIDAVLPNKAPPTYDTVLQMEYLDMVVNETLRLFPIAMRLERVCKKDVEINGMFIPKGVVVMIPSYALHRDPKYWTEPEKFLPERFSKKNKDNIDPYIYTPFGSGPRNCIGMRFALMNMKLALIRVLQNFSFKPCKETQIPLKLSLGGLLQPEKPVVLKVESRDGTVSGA
# Chain of Cytochrome P450 2D6 (P10635 whole entry): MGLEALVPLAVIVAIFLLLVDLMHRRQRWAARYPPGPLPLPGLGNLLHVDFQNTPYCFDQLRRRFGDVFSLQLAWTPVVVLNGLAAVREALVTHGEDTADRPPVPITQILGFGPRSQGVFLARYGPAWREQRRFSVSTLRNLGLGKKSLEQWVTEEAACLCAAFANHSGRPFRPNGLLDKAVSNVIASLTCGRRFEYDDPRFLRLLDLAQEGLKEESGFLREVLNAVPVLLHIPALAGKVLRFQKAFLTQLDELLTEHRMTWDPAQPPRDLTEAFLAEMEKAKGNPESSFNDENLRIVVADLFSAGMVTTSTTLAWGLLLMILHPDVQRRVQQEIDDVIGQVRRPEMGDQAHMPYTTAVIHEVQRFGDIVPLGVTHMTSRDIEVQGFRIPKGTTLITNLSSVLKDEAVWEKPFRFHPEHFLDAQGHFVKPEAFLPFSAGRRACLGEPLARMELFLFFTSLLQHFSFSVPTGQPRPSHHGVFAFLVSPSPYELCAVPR
# Chain of Luciferin 4-monooxygenase (P08659 whole entry): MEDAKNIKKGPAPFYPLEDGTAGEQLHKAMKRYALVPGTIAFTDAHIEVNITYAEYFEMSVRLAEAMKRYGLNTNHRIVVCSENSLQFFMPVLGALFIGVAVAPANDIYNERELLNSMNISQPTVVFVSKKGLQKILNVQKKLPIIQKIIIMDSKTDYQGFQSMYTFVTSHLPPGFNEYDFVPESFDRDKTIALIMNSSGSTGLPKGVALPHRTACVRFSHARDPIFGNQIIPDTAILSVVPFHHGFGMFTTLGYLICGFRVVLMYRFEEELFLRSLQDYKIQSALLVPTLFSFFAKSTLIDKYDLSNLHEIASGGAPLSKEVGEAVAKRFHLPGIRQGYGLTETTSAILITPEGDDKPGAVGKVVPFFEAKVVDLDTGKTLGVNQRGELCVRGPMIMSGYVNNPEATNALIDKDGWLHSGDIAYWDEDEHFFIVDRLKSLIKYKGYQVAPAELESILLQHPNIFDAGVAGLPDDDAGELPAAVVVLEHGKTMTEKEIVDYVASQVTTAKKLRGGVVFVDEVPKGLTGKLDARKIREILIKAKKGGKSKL
# Chain of Ephrin type-A receptor 4 (Q03137 whole entry): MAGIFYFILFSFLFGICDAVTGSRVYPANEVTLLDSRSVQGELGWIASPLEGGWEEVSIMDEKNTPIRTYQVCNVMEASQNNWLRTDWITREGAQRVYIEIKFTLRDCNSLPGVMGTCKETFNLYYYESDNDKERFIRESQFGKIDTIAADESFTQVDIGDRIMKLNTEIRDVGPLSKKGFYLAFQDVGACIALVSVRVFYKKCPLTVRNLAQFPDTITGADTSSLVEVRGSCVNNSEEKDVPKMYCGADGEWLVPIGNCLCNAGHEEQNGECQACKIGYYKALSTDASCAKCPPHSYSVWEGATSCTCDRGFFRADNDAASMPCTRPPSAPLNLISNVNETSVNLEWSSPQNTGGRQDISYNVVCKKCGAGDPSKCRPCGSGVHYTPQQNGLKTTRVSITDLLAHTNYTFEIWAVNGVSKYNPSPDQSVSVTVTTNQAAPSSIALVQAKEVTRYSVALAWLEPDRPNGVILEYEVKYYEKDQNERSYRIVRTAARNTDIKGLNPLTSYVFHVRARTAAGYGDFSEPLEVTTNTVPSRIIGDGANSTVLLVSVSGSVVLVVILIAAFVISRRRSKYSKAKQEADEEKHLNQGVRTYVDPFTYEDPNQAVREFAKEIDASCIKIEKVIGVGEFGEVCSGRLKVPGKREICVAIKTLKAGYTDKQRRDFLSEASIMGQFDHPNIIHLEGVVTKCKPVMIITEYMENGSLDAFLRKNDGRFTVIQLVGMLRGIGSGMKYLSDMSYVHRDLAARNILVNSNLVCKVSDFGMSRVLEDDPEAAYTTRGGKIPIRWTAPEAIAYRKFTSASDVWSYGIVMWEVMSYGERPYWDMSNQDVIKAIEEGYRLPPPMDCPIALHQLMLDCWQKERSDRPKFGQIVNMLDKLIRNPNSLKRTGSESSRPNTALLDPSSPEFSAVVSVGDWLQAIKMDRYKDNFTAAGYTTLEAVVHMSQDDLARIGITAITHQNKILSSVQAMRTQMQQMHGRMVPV
smiles,measurement,setting,value
CCS(=O)(=O)Nc1ccc(-c2nnc(SCC(=O)OC)o2)cc1,EC50,[1],> 112 µM (not active)
same,EC50,[2],6.33 µM (active)
same,EC50,[3],< 30 µM (active)
Cc1cc(C(=O)Cn2nc(C(=O)O)c3ccccc3c2=O)c(C)n1CC(F)(F)F,IC50,[4],> 60 µM (not active)
O=[N+]([O-])/C=C/c1cn(Cc2ccccc2)c2ccccc12,CC50,[5],> 40 µM (active)
same,EC50,[6],15.8 µM (active)
same,EC50,[7],13.2 µM (active)
same,IC50,Ephrin type-A receptor 4,2.3 µM (active)
same,AC50,[8],6.43 µM (active)
same,AC50,Cytochrome P450 2D6,15.8 µM (inconclusive)
C[C@@H]1CN(C2=C(Cl)C(=O)N(c3cccc([N+](=O)[O-])c3)C2=O)CCN1,IC50,[9],> 100 µM (not active)
same,IC50,Bcl-2-related protein A1 [10],9.03 µM (active)
same,IC50,Bcl-2-related protein A1 [11],12.7 µM (active)
CC1CCC2C(=O)N3C(CCC(C)[C@@H]3c3ccc(Br)cc3)C(=O)N2C1c1ccc(Br)cc1 (stereo partly specified),AC50,Cytochrome P450 2C19,3.98 µM (inconclusive)
same,AC50,Cytochrome P450 3A4,5.01 µM (inconclusive)
O=C(NC(=S)Nc1ncc(Br)cc1Br)c1ccccc1,EC50,[12],1.46 µM (active)

# — ChEMBL document CHEMBL1201862, “PubChem BioAssay data set” (2004)
